Measurements as given in patent publication US20200333357A1, “NOVEL TFEB PATHWAY AGONISTS FOR METABOLIC DISEASES AND AGEING” (The Board of Regents of the University of Texas System, priority 2017, published 2020).
Entries after “also recorded” stand apart in the source; their conditions may differ. Structures can show the parent of a compound that is named as a salt.

How the values were obtained:
TFEB = assay: GFP-TFEB nuclear translocation (high-content screen, dose-response, confocal imaging); type: cell-based, human; settings: for effect of calcineurin inhibition (FK506, CsA, siPPP3CB) on TFEB activation: 5 μM FK506, 10 μM CsA or siPPP3CB; for effect of Compound C (AMPK inhibitor) and STO-609 (CaMKKβ inhibitor) on induced TFEB nuclear translocation: 10 μM compound C, 25 μM STO-609, 4 hr; for effect of IP3R inhibitor Xestosporin C or siIP3R1 on induced TFEB nuclear translocation: 25 μM Xesto 1 hr pretreatment, time-dependent; for effect of GPN pretreatment (lysosomal Ca2+ depletion) on induced TFEB nuclear translocation: 200 μM GPN, 30 min pretreatment; for hit status in the TFEB screen overlapping with the autophagy (GFP-LC3) screen: compounds added for 4 hr, overlap with top 30 hits of autophagy screen; for effect of RNAi-mediated MCOLN1 depletion on induced TFEB nuclear translocation: siMCOLN1
Protocol: GFP-TFEB HeLa cells were seeded in 384-well plates. Compounds were added for 4 hr the following day. Bafilomycin A1 (250 nM) treated cells were used as positive controls and DMSO-treated cells as negative controls. […] Images were collected using 405 nm and 488 nm laser lines with DAPI and FITC emission filters. Images were analyzed using the GE IN Cell Analyzer Workstation software. Briefly, nuclei were segmented using the Hoechst channel and the cytoplasm was segmented using the GFP channel. For each cell, the mean GFP intensity in each compartment was measured and used to calculate the nuclear to cytoplasmic (N/C) TFEB-GFP ratio. The same method as mentioned above was used to generate the top 30 compounds with highest condensed activity values and robust Z score values.
GFP-TFEB HeLa cells treated with compounds or DMSO were fixed and stained with Hoechst. Images from at least 3 different fields per sample were acquired using a 40× objective on a Zeiss confocal microscope and analyzed with ImageJ. 20-30 cells were evaluated from each image for each sample, and 3 independent experiments were performed to generate the graphed values.

AMPK = AMPK and ACC phosphorylation immunoblots; type: cell-based, human; settings: HeLa cells, dose-dependent
Protocol: (§1) SFIGS. […] (SFIG. 4B) Representative images of GFP-TFEB HeLa cells treated with 3.3 μM AD or in combination with 5 μM FK506, 10 μM CsA or both. […] Scale bar, 20 μm. […] Scale bar, 20 μm. […] Scale bar, 20 μm. (SFIGS. 4F-G) Immunoblots of wide-type HeLa cells treated with various doses (starting from 3.3 μM with a 3-fold dilution, and right-most lane is DMSO) of AD and IKA.

NFAT = assay: Endogenous NFAT nuclear translocation; type: cell-based; settings: high or intermediate doses
Protocol: as §1

HeLa cells = assay: Fura-2 Ca2+ imaging; type: cell-based, human; settings: exposure at ~TFEB EC90
Protocol: HeLa cells treated with compounds or DMSO for 4 hr were loaded with Fura-2-AM (3 μM) in cell culture medium for 60 min at 37° C. Cells were washed twice then incubated in fresh medium for 30 min to allow complete de-esterification of intracellular AM esters. Imaging was performed at 37° C. with 5% CO2 on an epifluorescent microscope (Deltavision, Applied Precision) equipped with a digital monochrome Coolsnap HQ2 camera (Roper Scientific, Tucson, Ariz.). Fluorescence images were collected using SoftWoRx v3.4.5 (Universal Imaging, Downingtown, Pa.). Data were recorded at excitation/emission wavelengths of 340/510 nm (Fura-340 filter) and 387/510 nm (Fura-380 filter). The single band pass excitation filter for Fura-340 and Fura-380 is 26 nm and 11 nm, respectively, and the band pass of emission filters for Fura-340 and Fura-380 is 84 nm. Intracellular calibration of Fura-2 was accomplished by manipulating the Ca^2+ levels inside cells using the ionphore ionomycin (20 μM, Sigma-Aldrich) and by incubating cells in buffers with various Ca^2+ concentrations (calcium calibration buffer kit—Invitrogen). Intracellular fluorescence ratios were determined using ImageJ software. Images were background-corrected by subtracting the mean pixel values of a cell-free region near the region of interest. Fluorescent intensity ratio R=F340/F380, and Ca^2+ concentration can be calculated from Equation 3, where Kd can be obtained from intracellular calibration:
[Ca^2+]Kd×F380,min/F380,max×(R−Rmin)/(Rmax−R) (3)

| Structure (SMILES) | reversal of effect on TFEB by cell-permeable pyruvate (TFEB) | effect of thapsigargin (ER Ca2+ depletion) on induced TFEB nuclear translocation (TFEB; 300 nM TG, 30 min) | effect of calcineurin inhibition (FK506, CsA, siPPP3CB) on TFEB activation (TFEB) | effect of Compound C (AMPK inhibitor) and STO-609 (CaMKKβ inhibitor) on induced TFEB nuclear translocation (TFEB) | effect of IP3R inhibitor Xestosporin C or siIP3R1 on induced TFEB nuclear translocation (TFEB) | effect of GPN pretreatment (lysosomal Ca2+ depletion) on induced TFEB nuclear translocation (TFEB) | activating phosphorylation of AMPK and its substrate ACC (AMPK) | nuclear translocation of NFAT (NFAT) | cytosolic calcium (Fura-2) (HeLa cells) | effect of calcineurin perturbation on TFEB activation (TFEB; compound at EC50) | effect of calcineurin perturbation on TFEB activation (TFEB; compound at EC90) | hit status in the TFEB screen overlapping with the autophagy (GFP-LC3) screen (TFEB) | effect of RNAi-mediated MCOLN1 depletion on induced TFEB nuclear translocation (TFEB) | hit status in the TFEB screen overlapping with the autophagy (GFP-LC3) screen (TFEB; dihydrochloride) |
| --- | --- | --- | --- | --- | --- | --- | --- | --- | --- | --- | --- | --- | --- | --- |
| CC[C@H]1[C@@H]2C=C[C@@H]3[C@H]4C/C=C\C(=O)NCCC[C@@H]5NC(=O)/C(=C(O)/C=C/[C@@H]4C[C@@H]3[C@H]2C[C@H]1C)C5=O [IKA, ikarugamycin] | reversed | selectively decreased | calcineurin independent | inhibited | attenuated | almost no effect | induced activating phosphorylation | not | induce accumulation of cytosolic calcium |  |  |  |  |  |
| C[C@H]1O[C@@H](O[C@H]2[C@@H](O)C[C@H](O[C@H]3[C@@H](O)C[C@H](O[C@H]4CC[C@@]5(C)[C@H](CC[C@@H]6[C@@H]5C[C@@H](O)[C@]5(C)[C@@H](C7=CC(=O)OC7)CC[C@]65O)C4)O[C@@H]3C)O[C@@H]2C)C[C@H](O)[C@@H]1O [DG, digoxin, reference compound] | not |  |  | not | attenuated | sufficient to disrupt TFEB nuclear translocation | not | not | induce accumulation of cytosolic calcium | inhibited to some extent | resistant | top 18 hits; also recorded: top scoring hits | suppressed |  |
| CCCCC(CC)CNC(=N)NC(=N)NCCCCCCNC(=N)NC(=N)NCC(CC)CCCC (stereo not drawn) [AD, alexidine dihydrochloride] | reversed |  | block TFEB activation | inhibited | attenuated | sufficient to disrupt TFEB nuclear translocation | induced activating phosphorylation | induced dose-dependent nuclear translocation | induce accumulation of cytosolic calcium |  |  |  | suppressed | top 18 hits; also recorded: top scoring hits |
